Laboratory results taken from US6465654B2, “Process for preparing 1-substituted, 2-substituted 1H-imidazo[4, 5-c]quinoline-4-amines” (3M Innovative Properties Company, priority 1991, dated 2002).

Legend:
interferon-α [1] = test: Interferon-α induction in human cells, PBM; type: cell-based; conditions: 24 hours
[2] = system: vesicular stomatitis virus (VSV); test: microbe, parasite or virus in culture; type: cell-based; conditions: Vesicular stomatitis virus, read-out: VSV Yield Inhibition
interferon = test: Interferon induction in mice; type: in vivo; conditions: mouse serum
Outline: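 Interferon titres expressed as α/β reference units/mL relative to mouse MU-1-IF standard, "<" denoting undetectable. Pooled serum came from mouse groups bled at 1, 2 or 4 h, frozen at −70° C, analysed like human-cell samples.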

interferon-α [3] = test: Interferon-α induction in human cells, diluted whole blood; type: cell-based; conditions: 24 hours

| Structure (SMILES) | Interferon-α induction (interferon-α [1]; dose concentration 0.10 μg/mL) | Interferon-α induction (interferon-α [1]; dose concentration 0.50 μg/mL) | Interferon-α induction (interferon-α [1]; dose concentration 1.0 μg/mL) | Interferon-α induction (interferon-α [1]; dose concentration 5.0 μg/mL) | log reduction at 0.1 µg/mL [2] | log reduction at 0.5 µg/mL [2] | log reduction at 1 µg/mL [2] | Interferon induction in mice (interferon; oral 0.3 mg/kg, 1 hr) | Interferon induction in mice (interferon; oral 0.3 mg/kg, 2 hr) | Interferon induction in mice (interferon; oral 0.3 mg/kg, 4 hr) | Interferon induction in mice (interferon; oral 1 mg/kg, 1 hr) | Interferon induction in mice (interferon; oral 1 mg/kg, 2 hr) | Interferon induction in mice (interferon; oral 1 mg/kg, 4 hr) | Interferon induction in mice (interferon; oral 3 mg/kg, 1 hr) | Interferon induction in mice (interferon; oral 3 mg/kg, 2 hr) | Interferon induction in mice (interferon; oral 3 mg/kg, 4 hr) | Interferon induction in mice (interferon; oral 10 mg/kg, 1 hr) | Interferon induction in mice (interferon; oral 10 mg/kg, 2 hr) | Interferon induction in mice (interferon; oral 10 mg/kg, 4 hr) | further results |
| --- | --- | --- | --- | --- | --- | --- | --- | --- | --- | --- | --- | --- | --- | --- | --- | --- | --- | --- | --- | --- |
| COC(C)c1nc2c(N)nc3ccccc3c2n1CC(C)C (centres unmarked) [Example 66, 2-(1-Methoxyethyl)-1-(2-methylpropyl)-1H-imidazo[4,5-c]quinolin-4-amine] | <5 α Reference Units/mL | <5 α Reference Units/mL | 1000 α Reference Units/mL | 1000 α Reference Units/mL | 2 | 2 | 3 | <56 Reference Units/mL | <56 Reference Units/mL | <56 Reference Units/mL | <56 Reference Units/mL | <56 Reference Units/mL | <56 Reference Units/mL | <74 Reference Units/mL | <120 Reference Units/mL | <56 Reference Units/mL | 1100 Reference Units/mL | 2600 Reference Units/mL | 380 Reference Units/mL | – |
| CC(C)Cn1c(C(C)(C)O)nc2c(N)nc3ccccc3c21 [Example 23, 4-Amino-α,α-dimethyl-1-(2-methylpropyl)-1H-imidazo[4,5-c]quinoline-2-methanol] | – | – | – | – | – | – | – | – | – | – | – | – | – | – | – | – | – | – | – | Interferon induction in mice (interferon; oral 30 mg/kg, 1 hr): 1200 Reference Units/mL; Interferon induction in mice (interferon; oral 30 mg/kg, 2 hr): 1200 Reference Units/mL; Interferon induction in mice (interferon; oral 30 mg/kg, 4 hr): 140 Reference Units/mL; Interferon-α induction (interferon-α [3]; dose concentration 0.10 μg/mL): <1.8 α Reference Units/mL; Interferon-α induction (interferon-α [3]; dose concentration 0.50 μg/mL): <1.8 α Reference Units/mL; Interferon-α induction (interferon-α [3]; dose concentration 1.0 μg/mL): 84 α Reference Units/mL; Interferon-α induction (interferon-α [3]; dose concentration 5.0 μg/mL): 250 α Reference Units/mL |
| COCc1nc2c(N)nc3ccccc3c2n1CC(C)(C)O [Example 96, 4-Amino-α,α-dimethyl-2-methoxymethyl-1H-imidazo[4,5-c]quinoline-1-ethanol] | 1200 α Reference Units/mL | 460 α Reference Units/mL | 1000 α Reference Units/mL | 900 α Reference Units/mL | 6 | 5 | 5 | 2900 Reference Units/mL | 3400 Reference Units/mL | 620 Reference Units/mL | 3200 Reference Units/mL | 5000 Reference Units/mL | 1100 Reference Units/mL | 3000 Reference Units/mL | 10000 Reference Units/mL | 960 Reference Units/mL | 2900 Reference Units/mL | 4700 Reference Units/mL | ˜350 Reference Units/mL | Interferon-α induction (interferon-α [1]; dose concentration 0.01 μg/mL): <6.4 α Reference Units/mL; Interferon-α induction (interferon-α [1]; dose concentration 0.05 μg/mL): 44 α Reference Units/mL |
